Experimental data from the supplement of paper PMC10307832.

Tests used:
Test in all cases: relative viability (nuclei count vs DMSO), 5 days (fraction); higher = more cells survive
17-AAG = compound: C=CCNC1=C2C[C@@H](C)C[C@H](OC)[C@H](O)[C@@H](C)/C=C(\C)[C@H](OC(N)=O)[C@@H](OC)/C=C\C=C(/C)C(=O)NC(=CC1=O)C2=O [17-AAG]
How it was run: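 Lung cancer cell lines in 1536-well plates were kept overnight at 37 °C, then pinned with five library-drug doses (not always all listed) spaced by √10 on vehicle-anchored plates. After 5 days without medium change, cells were fixed, permeabilised and Hoechst-stained in one step, imaged at 4×, and nuclei were counted with MetaXpress. Viability is treated-well nuclei divided by vehicle-well nuclei, taken as the median over plates. Plates passed only with control CV below 25% and at least one doubling.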

17-AAG + Foretinib = compound: C=CCNC1=C2C[C@@H](C)C[C@H](OC)[C@H](O)[C@@H](C)/C=C(\C)[C@H](OC(N)=O)[C@@H](OC)/C=C\C=C(/C)C(=O)NC(=CC1=O)C2=O [17-AAG] + COc1cc2c(Oc3ccc(NC(=O)C4(C(=O)Nc5ccc(F)cc5)CC4)cc3F)ccnc2cc1OCCCN1CCOCC1 [Foretinib] (partner 0.25 µM)
How it was run: (§1)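 Medians of duplicate plates are given as relative viability. That measure is the nuclei count in treated wells divided by the count in vehicle wells. Counts were taken on 4× images of lung cancer cell lines in 1536-well plates, 5 days after pin-tool dosing the day after seeding with one drug alone or a fixed anchor-drug dose plus five library-drug doses (not always all listed) in √10 steps.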

17-AAG + Pictilisib = compound: C=CCNC1=C2C[C@@H](C)C[C@H](OC)[C@H](O)[C@@H](C)/C=C(\C)[C@H](OC(N)=O)[C@@H](OC)/C=C\C=C(/C)C(=O)NC(=CC1=O)C2=O [17-AAG] + CS(=O)(=O)N1CCN(Cc2cc3nc(-c4cccc5[nH]ncc45)nc(N4CCOCC4)c3s2)CC1 [Pictilisib] (partner 1 µM)
How it was run: as §1

17-AAG + Olaparib = compound: C=CCNC1=C2C[C@@H](C)C[C@H](OC)[C@H](O)[C@@H](C)/C=C(\C)[C@H](OC(N)=O)[C@@H](OC)/C=C\C=C(/C)C(=O)NC(=CC1=O)C2=O [17-AAG] + O=C(c1cc(Cc2n[nH]c(=O)c3ccccc23)ccc1F)N1CCN(C(=O)C2CC2)CC1 [Olaparib] (partner 8 µM)
How it was run: as §1

17-AAG + Lapatinib = compound: C=CCNC1=C2C[C@@H](C)C[C@H](OC)[C@H](O)[C@@H](C)/C=C(\C)[C@H](OC(N)=O)[C@@H](OC)/C=C\C=C(/C)C(=O)NC(=CC1=O)C2=O [17-AAG] + CS(=O)(=O)CCNCc1ccc(-c2ccc3ncnc(Nc4ccc(OCc5cccc(F)c5)c(Cl)c4)c3c2)o1 [Lapatinib] (partner 2 µM)
How it was run: as §1

17-AAG + Linsitinib = compound: C=CCNC1=C2C[C@@H](C)C[C@H](OC)[C@H](O)[C@@H](C)/C=C(\C)[C@H](OC(N)=O)[C@@H](OC)/C=C\C=C(/C)C(=O)NC(=CC1=O)C2=O [17-AAG] + C[C@]1(O)C[C@@H](c2nc(-c3ccc4ccc(-c5ccccc5)nc4c3)c3c(N)nccn32)C1 [Linsitinib] (partner 1 µM)
How it was run: as §1

17-AAG + Crizotinib = compound: C=CCNC1=C2C[C@@H](C)C[C@H](OC)[C@H](O)[C@@H](C)/C=C(\C)[C@H](OC(N)=O)[C@@H](OC)/C=C\C=C(/C)C(=O)NC(=CC1=O)C2=O [17-AAG] + C[C@@H](Oc1cc(-c2cnn(C3CCNCC3)c2)cnc1N)c1c(Cl)ccc(F)c1Cl [Crizotinib] (partner 1 µM)
How it was run: as §1

17-AAG + Bortezomib = compound: C=CCNC1=C2C[C@@H](C)C[C@H](OC)[C@H](O)[C@@H](C)/C=C(\C)[C@H](OC(N)=O)[C@@H](OC)/C=C\C=C(/C)C(=O)NC(=CC1=O)C2=O [17-AAG] + CC(C)C[C@H](NC(=O)[C@H](Cc1ccccc1)NC(=O)c1cnccn1)B(O)O [Bortezomib] (partner 0.002 µM)
How it was run: as §1

17-AAG + Alpelisib = compound: C=CCNC1=C2C[C@@H](C)C[C@H](OC)[C@H](O)[C@@H](C)/C=C(\C)[C@H](OC(N)=O)[C@@H](OC)/C=C\C=C(/C)C(=O)NC(=CC1=O)C2=O [17-AAG] + Cc1nc(NC(=O)N2CCC[C@H]2C(N)=O)sc1-c1ccnc(C(C)(C)C(F)(F)F)c1 [Alpelisib] (partner 2 µM)
How it was run: as §1

17-AAG + Navitoclax = compound: C=CCNC1=C2C[C@@H](C)C[C@H](OC)[C@H](O)[C@@H](C)/C=C(\C)[C@H](OC(N)=O)[C@@H](OC)/C=C\C=C(/C)C(=O)NC(=CC1=O)C2=O [17-AAG] + CC1(C)CCC(c2ccc(Cl)cc2)=C(CN2CCN(c3ccc(C(=O)NS(=O)(=O)c4ccc(N[C@H](CCN5CCOCC5)CSc5ccccc5)c(S(=O)(=O)C(F)(F)F)c4)cc3)CC2)C1 [Navitoclax] (partner 0.5 µM)
How it was run: as §1

Q: For NCI-H1299, which relative viability (17-AAG; 0.00128 µM) is on record?
A: Its relative viability is 1.01.

Q: And the relative viability (17-AAG; 0.004048 µM)?
A: The relative viability was 0.977.

Q: What about the relative viability (17-AAG; 0.0128 µM) of the same cell line?
A: The relative viability was 0.981.

Q: What about the relative viability (17-AAG; 0.04048 µM) of the same cell line?
A: The relative viability was 0.931.

Q: And the relative viability (17-AAG; 0.128 µM)?
A: The relative viability was 0.538.

Q: What about the relative viability (17-AAG + Foretinib; first compound 0.00128 µM) of the same cell line?
A: Its relative viability is 1.12.

Q: What about the relative viability (17-AAG + Foretinib; first compound 0.004048 µM) of the same cell line?
A: The relative viability was 1.03.

Q: What about the relative viability (17-AAG + Foretinib; first compound 0.0128 µM) of the same cell line?
A: Its relative viability is 1.08.

Q: And the relative viability (17-AAG + Foretinib; first compound 0.04048 µM)?
A: Its relative viability is 1.04.

Q: What about the relative viability (17-AAG + Foretinib; first compound 0.128 µM) of the same cell line?
A: The relative viability was 0.945.

Q: What about the relative viability (17-AAG + Pictilisib; first compound 0.00128 µM) of the same cell line?
A: The relative viability was 0.802.

Q: And the relative viability (17-AAG + Pictilisib; first compound 0.004048 µM)?
A: The relative viability was 0.791.

Q: What about the relative viability (17-AAG + Pictilisib; first compound 0.0128 µM) of the same cell line?
A: Its relative viability is 0.698.

Q: What about the relative viability (17-AAG + Pictilisib; first compound 0.04048 µM) of the same cell line?
A: Its relative viability is 0.151.

Q: And the relative viability (17-AAG + Pictilisib; first compound 0.128 µM)?
A: Its relative viability is 0.0717.

Q: What about the relative viability (17-AAG + Olaparib; first compound 0.00128 µM) of the same cell line?
A: Its relative viability is 1.01.

Q: And the relative viability (17-AAG + Olaparib; first compound 0.004048 µM)?
A: Its relative viability is 0.922.

Q: And the relative viability (17-AAG + Olaparib; first compound 0.0128 µM)?
A: The relative viability was 0.965.

Q: What about the relative viability (17-AAG + Olaparib; first compound 0.04048 µM) of the same cell line?
A: Its relative viability is 0.605.

Q: What about the relative viability (17-AAG + Olaparib; first compound 0.128 µM) of the same cell line?
A: The relative viability was 0.282.

Q: And the relative viability (17-AAG + Lapatinib; first compound 0.00128 µM)?
A: The relative viability was 0.964.

Q: What about the relative viability (17-AAG + Lapatinib; first compound 0.004048 µM) of the same cell line?
A: Its relative viability is 0.904.

Q: And the relative viability (17-AAG + Lapatinib; first compound 0.0128 µM)?
A: The relative viability was 0.924.

Q: And the relative viability (17-AAG + Lapatinib; first compound 0.04048 µM)?
A: Its relative viability is 0.779.

Q: And the relative viability (17-AAG + Lapatinib; first compound 0.128 µM)?
A: The relative viability was 0.416.

Q: What about the relative viability (17-AAG + Linsitinib; first compound 0.00128 µM) of the same cell line?
A: The relative viability was 0.999.

Q: And the relative viability (17-AAG + Linsitinib; first compound 0.004048 µM)?
A: Its relative viability is 0.922.

Q: What about the relative viability (17-AAG + Linsitinib; first compound 0.0128 µM) of the same cell line?
A: Its relative viability is 0.919.

Q: And the relative viability (17-AAG + Linsitinib; first compound 0.04048 µM)?
A: Its relative viability is 0.894.

Q: And the relative viability (17-AAG + Linsitinib; first compound 0.128 µM)?
A: The relative viability was 0.714.

Q: What about the relative viability (17-AAG + Crizotinib; first compound 0.00128 µM) of the same cell line?
A: Its relative viability is 0.975.

Q: What about the relative viability (17-AAG + Crizotinib; first compound 0.004048 µM) of the same cell line?
A: Its relative viability is 0.932.

Q: What about the relative viability (17-AAG + Crizotinib; first compound 0.0128 µM) of the same cell line?
A: The relative viability was 0.897.

Q: What about the relative viability (17-AAG + Crizotinib; first compound 0.04048 µM) of the same cell line?
A: Its relative viability is 0.814.

Q: What about the relative viability (17-AAG + Crizotinib; first compound 0.128 µM) of the same cell line?
A: The relative viability was 0.237.

Q: And the relative viability (17-AAG + Bortezomib; first compound 0.00128 µM)?
A: Its relative viability is 1.06.

Q: And the relative viability (17-AAG + Bortezomib; first compound 0.004048 µM)?
A: Its relative viability is 0.977.

Q: What about the relative viability (17-AAG + Bortezomib; first compound 0.0128 µM) of the same cell line?
A: Its relative viability is 1.01.

Q: And the relative viability (17-AAG + Bortezomib; first compound 0.04048 µM)?
A: The relative viability was 0.948.

Q: What about the relative viability (17-AAG + Bortezomib; first compound 0.128 µM) of the same cell line?
A: The relative viability was 0.665.

Q: What about the relative viability (17-AAG + Alpelisib; first compound 0.00128 µM) of the same cell line?
A: The relative viability was 1.04.

Q: What about the relative viability (17-AAG + Alpelisib; first compound 0.004048 µM) of the same cell line?
A: The relative viability was 1.05.

Q: And the relative viability (17-AAG + Alpelisib; first compound 0.0128 µM)?
A: Its relative viability is 1.

Q: And the relative viability (17-AAG + Alpelisib; first compound 0.04048 µM)?
A: The relative viability was 0.94.

Q: And the relative viability (17-AAG + Alpelisib; first compound 0.128 µM)?
A: Its relative viability is 0.729.

Q: What about the relative viability (17-AAG + Navitoclax; first compound 0.00128 µM) of the same cell line?
A: Its relative viability is 1.04.

Q: What about the relative viability (17-AAG + Navitoclax; first compound 0.004048 µM) of the same cell line?
A: Its relative viability is 1.01.

Q: What about the relative viability (17-AAG + Navitoclax; first compound 0.0128 µM) of the same cell line?
A: The relative viability was 1.07.

Q: And the relative viability (17-AAG + Navitoclax; first compound 0.04048 µM)?
A: The relative viability was 0.952.

Q: What about the relative viability (17-AAG + Navitoclax; first compound 0.128 µM) of the same cell line?
A: Its relative viability is 0.755.
